Data as given in patent publication US11925679B2, “H3.3 CTL peptides and uses thereof” (The Regents of the University of California, priority 2015, dated 2024).

How the values were obtained:
[1] = test system: HLA-A*0201+ donor-derived PBMCs; assay: In vitro stimulation of donor PBMCs with peptide, tetramer staining of CD8+ T-cells
Protocol: Peripheral blood mononuclear cells from an HLA-A ? + donor were stimulated in vitro with the H3.3.K27M peptide and evaluated for their reactivity against: (1A) HLA-A ? /H3.3.K27M-specific tetramer and anti-CD8 mAb, and (1B) T2 cells pulsed with the mutant or non-mutated H3.3 peptide by IFN-γ ELISA.
Induction and isolation of H3.3K27M-specific CTL clones. To generate dendritic cells, the plastic adherent cells from PBMCs were cultured in AIM-V medium (Invitrogen) supplemented with 1,000 units/mL recombinant human granulocyte macrophage colony-stimulating factor and 500 units/mL recombinant human IL-4 (rhIL-4; Cell Sciences) at 37° C. in a humidified CO2 (5%) incubator. Six days later, the immature dendritic cells were stimulated with recombinant human tumor necrosis factor-α, IL-6, and IL-1 (10 ng/mL each). Mature dendritic cells were then harvested on day 8, resuspended in AIM-V medium at 1×10^6 cells per mL with peptide (10 μg/mL), and incubated for 2 hours at 37° C. Populations of autologous CD8^+ T-cells were enriched from PBMCs using magnetic microbeads (Miltenyi Biotech). CD8^+ T-cells (2×10^6 per well) were co-cultured with 2×10^5 per well peptide-pulsed dendritic cells in 2 mL/well of AIM-V medium supplemented with 5% human AB serum, 10 units/mL rhIL-2 (R&D Systems, Minneapolis, Minn.), and 10 units/mL rhIL-7 (Cell Sciences) in each well of 24-well tissue culture plates. On day 15, lymphocytes were re-stimulated with autologous dendritic cells pulsed with peptide in AIM-V medium supplemented with 5% human AB serum, rhIL-2, and rhIL-7 (10 units/mL each).
HLA-A*0201-peptide tetramer staining. […] (SEQ ID NO:2) tetramer (H3.3K27M-tetramer) was produced by the National Institute of Allergy and Infectious Disease tetramer facility within the Emory University Vaccine Center (Atlanta, Ga.) using the peptide synthesized by A&A labs (San Diego; CA). […] Cells were then washed with FACS Buffer (PBS containing 1% FBS). For some experiments, T-cells were stained with tetramer, followed by anti-human CD8 APC (Biolegend, 344722) and anti-human CD69 FITC (eBioscience, 11-0699-42).

[2] = test system: purified HLA-A2 class I molecules; assay: Competitive binding inhibition assay with purified HLA-A2 and radiolabeled probe peptide; parameters: species or system human; conditions: cell-free binding assay, FIG. 8A

RMSAPSTGGV [H3.3.K27M (26-35)]
CD8+tetramer+ population ([1]; FIG. 2A): 64.1 % of total lymphocyte-gated cells
tetramer high subpopulation ([1]; FIG. 2A): 2.4 % of total lymphocyte-gated cells
CD8+ cells bound to the HLA-A*0201-H3.3.K27M (26-35) tetramer ([1]; several weekly stimulation cycles in vitro): over 60%

XMSAPSTGGV [Cit H3.3]
affinity to HLA-A*0201 relative to H3.3.K27M (26-35) [2]: partially retains its affinity
